# Results reported in patent publication US20200000751A1, “CARBOXYLIC ACIDS FOR TREATING/PREVENTING NASAL CONGESTION” (PROPONENT BIOTECH GMBH, priority 2016, published 2020).
# Assay: Stability of test item in solution
# Assay type: physicochemical
# Conditions: in Locke-Ringer Solution
smiles,measurement,value
CCC(=O)[O-].[Na+] [Sodium propionate],Stability of Test Item in Solution,≥6 months in Locke-Ringer Solution
